According to PMC4834666 (ACS Medicinal Chemistry Letters, 2016):

What was measured:
[1] = human liver microsomes
[2] = Human hepatocyte stability; assay type: in vitro ADME; conditions: human hepatocytes
[3] = system: U87 MG/M human glioblastoma xenografts; conditions: each dose, for the duration of the xenograft study

Compound | HLM Clhep [1] [mL/min/kg] | HH Clhep [2] [mL/min/kg] | tolerability [3]
COC(C)(C)c1cc2nc(-c3cnc(N)nc3)nc(N3CCOCC3)c2s1 [Compound 1, reference compound] | 10.4 | – | –
Cc1nc(N)ncc1-c1nc(N2CCOCC2)c2nc3n(c2n1)CCOC3(C)C [Compound 15] | 3.1 | 1.2 | –
COC1(c2sc3c(N4CCOCC4)nc(-c4cnc(N)nc4)nc3c2C)COC1 [Compound 2, reference compound] | 9.8 | – | –
CC1(C)OCCn2c1nc1c(N3CCOCC3)nc(-c3cnc(N)nc3)nc12 [Compound 16, GDC-0084] | 5.0 | 1.0 | well tolerated
Cc1nc(N)ncc1-c1nc(N2CCOCC2)c2nc(C(C)(C)O)n(CCO)c2n1 [Compound 4] | 2.8 | – | –
